Results taken from patent publication US20210369677A1, “SMALL MOLECULE ACTIVATORS OF POLYCYSTIN-2 (PKD2) AND USES THEREOF” (Northwestern University, priority 2020, published 2021).

Biological target: T1, polycystin-2 (Homo sapiens, UniProt Q13563, C331S/C344S)
T1 construct: expressed in transfected cells
T1 sequence (Q13563 1-968 C331S/C344S): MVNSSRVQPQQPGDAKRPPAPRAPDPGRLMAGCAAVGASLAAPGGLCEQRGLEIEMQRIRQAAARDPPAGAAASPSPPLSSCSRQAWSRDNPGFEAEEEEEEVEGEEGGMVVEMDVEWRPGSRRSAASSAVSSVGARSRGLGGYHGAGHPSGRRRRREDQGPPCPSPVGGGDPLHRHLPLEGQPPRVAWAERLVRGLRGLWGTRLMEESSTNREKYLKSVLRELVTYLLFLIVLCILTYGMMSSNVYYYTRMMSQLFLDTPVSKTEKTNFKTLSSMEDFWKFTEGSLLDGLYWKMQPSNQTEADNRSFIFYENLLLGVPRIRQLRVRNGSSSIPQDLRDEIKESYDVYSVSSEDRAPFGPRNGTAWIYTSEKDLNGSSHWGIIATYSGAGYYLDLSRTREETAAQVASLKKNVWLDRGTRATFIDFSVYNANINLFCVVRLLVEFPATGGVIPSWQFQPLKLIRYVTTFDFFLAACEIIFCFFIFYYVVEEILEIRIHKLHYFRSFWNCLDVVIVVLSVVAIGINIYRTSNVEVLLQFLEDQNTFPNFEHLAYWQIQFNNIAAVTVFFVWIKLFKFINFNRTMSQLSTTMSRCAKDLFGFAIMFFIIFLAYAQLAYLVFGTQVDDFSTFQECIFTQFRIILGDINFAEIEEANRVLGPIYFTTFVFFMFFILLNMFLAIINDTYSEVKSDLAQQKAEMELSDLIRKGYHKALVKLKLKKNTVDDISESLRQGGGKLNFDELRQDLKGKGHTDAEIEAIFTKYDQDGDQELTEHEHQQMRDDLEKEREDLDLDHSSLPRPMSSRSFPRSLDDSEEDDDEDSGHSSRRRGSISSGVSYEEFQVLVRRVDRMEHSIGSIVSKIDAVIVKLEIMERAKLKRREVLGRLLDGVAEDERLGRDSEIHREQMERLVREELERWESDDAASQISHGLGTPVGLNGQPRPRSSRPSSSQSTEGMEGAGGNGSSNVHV
Type: cell-based
Conditions: C331S:C334S double mutant

[Gd] [gadolinium]
Effect on C331S:C334S channel cilia current: retaining its sensitivity to pore block
